According to patent publication US20240383872A1, “NOVEL PYRIDINE AND PYRAZINE COMPOUNDS AS INHIBITORS OF CANNABINOID RECEPTOR 2” (HOFFMANN-LA ROCHE INC., priority 2018, published 2024):

Biological target: human CB2 receptor (CNR2) (Homo sapiens (Human), UniProt P34972)
Experiment: Radioligand binding assay, human CB2
Conditions: HEK cell membranes expressing human CNR2, [3H]-CP-55,940 radioligand
Protocol: The affinity of the compounds of the invention for cannabinoid CB1 receptors was determined using recommended amounts of membrane preparations (PerkinElmer) of human embryonic kidney (HEK) cells expressing the human CNRI or CNR2 receptors in conjunction with 1.5 or 2.6 nM [3H]-CP-55,940 (Perkin Elmer) as radioligand, respectively. Binding was performed in binding buffer (50 mM Tris, 5 mM MgCl2, 2.5 mM EDTA, and 0.5% (wt/vol) fatty acid free BSA, pH 7.4 for CB1 receptor and 50 mM Tris, 5 mM MgCl2, 2.5 mM EGTA, and 0.1% (wt/vol) fatty acid free BSA, pH 7.4 for CB2 receptor) in a total volume of 0.2 ml for 1 h at 30° C. shaking. The reaction was terminated by rapid filtration through microfiltration plates coated with 0.5% polyethylenimine (UniFilter GF/B filter plate; Packard). Bound radioactivity was analyzed for Ki using nonlinear regression analysis (Activity Base, ID Business Solution, Limited), with the Kd values for [3H]CP55,940 determined from saturation experiments. The compounds of formula (I) show an excellent affinity for the CB2 receptor.
The compounds according to formula (I) have an activity in the above assay (Ki) between 0.5 nM and 10 μM. Particular compounds of formula (I) have an activity in the above assay (Ki) between 0.5 nM and 3 μM. Other particular compounds of formula (I) have an activity in the above assay (Ki) between 0.5 nM and 100 nM.

human CB2 receptor (CNR2), sequence (P34972 whole entry): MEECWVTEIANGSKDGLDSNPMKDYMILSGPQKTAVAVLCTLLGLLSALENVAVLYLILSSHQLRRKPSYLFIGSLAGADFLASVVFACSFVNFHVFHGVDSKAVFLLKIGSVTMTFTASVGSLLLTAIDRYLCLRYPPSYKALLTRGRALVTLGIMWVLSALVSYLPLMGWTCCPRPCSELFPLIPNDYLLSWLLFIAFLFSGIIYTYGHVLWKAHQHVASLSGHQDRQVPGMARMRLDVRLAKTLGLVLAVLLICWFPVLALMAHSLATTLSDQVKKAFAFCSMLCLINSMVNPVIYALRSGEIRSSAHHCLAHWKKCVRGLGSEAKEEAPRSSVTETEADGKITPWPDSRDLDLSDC

Row | Structure (SMILES) | Ki [nM]
1 | CC(C)[C@@H](COCF)NC(=O)c1ccc(N2CCCC2)c(OCC2CC2)n1 [Example 19, 6-(Cylopropylmethoxy)-N-[(2S)-1-(fluoromethoxy)-3-methylbutan-2-yl]-5-(pyrrolidin-1-yl)pyridine-2-carboxamide] | 70
2 | COC1CN(c2ccc(C(=O)N[C@H](COCCF)CC(C)C)nc2OCC2CC2)C1 [Example 27, 6-(Cyclopropylmethoxy)-N-[(2S)-1-(2-fluoroethoxy)-4-methylpentan-2-yl]-5-(3-methoxyazetidin-1-yl) pyridine-2-carboxamide] | 18
3 | CCC(CC)(NC(=O)c1ccc(N2CC(F)(F)C2)c(OCC2CC2)n1)C(=O)OCCCF [Example 6, 3-Fluoropropyl 2-{[6-(cyclopropylmethoxy)-5-(3,3-difluoroazetidin-1-yl)pyridine-2-carbonyl]amino}-2-ethylbutanoate] | 19
4 | COC1CN(c2ccc(C(=O)N[C@H](COCCCF)CC(C)C)nc2OCC2CC2)C1 [Example 28, 6-(Cyclopropylmethoxy)-N-[(2S)-1-(3-fluoropropoxy)-4-methylpentan-2-yl]-5-(3-methoxyazetidin-1-yl) pyridine-2-carboxamide] | 31
5 | COC1CN(c2ccc(C(=O)N[C@@H](CC(C)C)C(=O)OCCF)nc2OCC2CC2)C1 [Example 11, 2-Fluoroethyl N-[6-(cyclopropylmethoxy)-5-(3-methoxyazetidin-1-yl)pyridine-2-carbonyl]-L-leucinate] | 15
6 | CCC(CC)(NC(=O)c1ccc(N2CCCC2)c(OCC2CC2)n1)C(=O)OCCCF [Example 7, 3-Fluoropropyl 2-{[6-(cyclopropylmethoxy)-5-(pyrrolidin-1-yl)pyridine-2-carbonyl]amino}-2-ethylbutanoate] | 5
